From ChEMBL document CHEMBL1128575, “Nonpeptidic inhibitors of human leukocyte elastase. 5. Design, synthesis, and X-ray crystallography of a series of orally active 5-aminopyrimidin-6-one-containing trifluoromethyl ketones” (J Med Chem, 1995) come the findings set out here.

Data set [1] can be described thus: Area under the concentration vs time curve in dog at 10 mg/kg oral dose. It counts as ADME, organism-based, Canis lupus familiaris. Set-up: dose 10 mg/kg, route oral. The following applies: in vivo.
Data set [2] is described as follows: Area under the concentration vs time curve in hamster at 10 mg/kg oral dose. It counts as ADME, organism-based. The arrangement: dose 10 mg/kg, route oral. The following applies: cricetinae, in vivo.
Data set [3] in a line: Area under the concentration vs time curve in rat at 10 mg/kg oral dose. The format is ADME, organism-based. The arrangement: dose 10 mg/kg, route oral. The following applies: in vivo.
A short description of data set [4]: Maximum concentration in plasma recorded 0-6 hr post dose in dog at 10 mg/kg oral dose. The format is ADME, organism-based, Canis lupus familiaris. The arrangement: dose 10 mg/kg, route oral.
The nature of data set [5]: Maximum concentration in plasma recorded in the period 0-6 hr post dose in hamster at 10 mg/kg oral dose. It counts as ADME, organism-based. Set-up: dose 10 mg/kg, route oral. To be noted: cricetinae.
Data set [6] can be described thus: Maximum concentration in plasma recorded in the period 0-6 hr post dose in rat at 10 mg/kg oral dose. It counts as ADME, organism-based. Set-up: dose 10 mg/kg, route oral.
The nature of data set [7]: Tmax is the time of maximum concentration in rat at 10 mg/kg oral dose. It counts as ADME, organism-based. Set-up: dose 10 mg/kg, route oral. To be noted: in vivo.
The nature of data set [8]: Tmax is the time of maximum concentration in hamster at 10 mg/kg oral dose. It counts as ADME, organism-based. Set-up: dose 10 mg/kg, route oral. To be noted: cricetinae, in vivo.
Data set [9] is described as follows: Tmax is the time of maximum concentration in dog at 10 mg/kg oral dose. The format is ADME, organism-based, Canis lupus familiaris. The arrangement: dose 10 mg/kg, route oral. To be noted: in vivo.
The nature of data set [10]: Half life in plasma in hamster at 10 mg/kg oral dose. It counts as ADME, organism-based. The arrangement: dose 10 mg/kg, route oral. The following applies: cricetinae.
Data set [11] has as its system Cricetinae gen. sp. The experiment in a line: Oral dose of 2.5 mg/Kg (30 min prior to instillation of elastase) was tested for the inhibition of elastase-induced lung hemorrhage in hamster. The format is functional, Cricetulus griseus.
Data set [12] has as its system Cricetinae gen. sp. As to the kind of experiment: Oral dose of 2.5 mg/Kg (90 min prior to instillation of elastase) was tested for the inhibition of elastase-induced lung hemorrhage in hamster. It counts as functional, Cricetulus griseus.
Data set [13] has as its system Cricetinae gen. sp. The experiment in a line: Oral dose of 20 mg/Kg (30 min prior to instillation of elastase) was tested for the inhibition of elastase-induced lung hemorrhage in hamster. It counts as functional, Cricetulus griseus.
Data set [14] can be described thus: Half life in plasma in dog at 10 mg/kg oral dose. The format is ADME, organism-based, Canis lupus familiaris. Set-up: dose 10 mg/kg, route oral.
A short description of data set [15]: Half life in plasma in rat at 10 mg/kg oral dose. It counts as ADME, organism-based. The arrangement: dose 10 mg/kg, route oral.

Usually AUC stands for the area under the concentration-time curve, a measure of exposure. For orientation: Cmax means the highest concentration seen after dosing. Usually Tmax stands for the time at which the peak concentration occurs. What is called half-life is the time needed for the level to fall by half in the phase considered. Low readings indicate fast loss, high ones slow loss. In general, inhibition in vivo refers to the percentage by which the read-out fell short of the control. A lower inhibition in vivo goes with little suppression. As to `CC(C)C(NC(=O)Cn1c(-c2ccc(F)cc2)ncc(N)c1=O)C(=O)C(F)(F)F` (stereo not given), the area under the curve (AUC) is 5950 ng·h/mL in data set [1], 1190 ng·h/mL in [2] and 5170 ng·h/mL in data set [3]. For the same compound, the Cmax in data set [4] stood at 3230 ng/mL; in [5] it was 750 ng/mL; in [6], 1900 ng/mL. The figures for the Tmax in data set [7], in data set [8] and in data set [9] were 1 h, 0.25 h and 1 h, respectively. The half-life was found to be 1.35 h in data set [10], 0.967 h in data set [14] and 1.6 h in [15]. Further, the inhibition in vivo at 2.5 mg/kg in the data set with Cricetinae gen. sp. [11] came out at 43%; with Cricetinae gen. sp. [12], 49%. In the data set with Cricetinae gen. sp. [13], this compound yielded an inhibition in vivo at 20 mg/kg of 66%.
